Reference: patent US20150051257A1, “SULPHONAMIDE DERIVATIVES OF BENZYLAMINE FOR THE TREATMENT OF CNS DISEASES” (ADAMED SP. Z O.O, priority 2012, published 2015)

Assays:
σ (non-selective) = experiment: Radioligand binding assay, σ receptors; conditions: test compound 1×10^−6M; [3H]DTG; rat cerebral cortex
Method: (§1) Specific ligand binding to the receptors is defined as the difference between the total binding and the non-specific binding determined in the presence of an excess of unlabelled ligand.
(§2) The results are expressed as a percent of control specific binding ((measured specific binding/control specific binding)×100%) obtained in the presence of the test compounds. The compounds were tested for their affinity to receptors at a concentration of 1×10^−6M.
(§3) Conditions and methodology of in vitro tests are given by reference to the literature in Table 1, and the results of tests for representative compounds are given in Table 2 (dopaminergic receptors D2 and D3), in Table 3 (dopaminergic receptors D1 and D4.4), in Table 4 (serotoninergic receptors 5-HT1A, 5-HT2A, 5-HT6, 5-HT7), in table 5 (serotoninergic receptors 5-HT2C), in Table 6 (sigma o receptors), in Table 7 (adrenergic receptors α1, histaminergic receptors H1 and muscarinic receptors M3), in Table 8 (adrenergic receptors α2C) and in Table 9 (serotonin transporter receptors SERT).

α1 (non-selective) = experiment: Radioligand binding assay, adrenergic α1 receptors; conditions: test compound 1×10^−6M; [3H]prazosin; rat cerebral cortex
Method: as §1, §2, §3

[1] = target: T1, hERG potassium channels (KCNH2 gene, expressed in CHO cells) (Homo sapiens, UniProt Q12809); experiment: Ability to block hERG potassium channel (electrophysiology, IonWorks Quattro); assay type: cell-based; conditions: cloned hERG in CHO cells; test pulse +40 mV; concentration not given
T1 construct: expressed in transfected cells; host or cells: CHO cells
T1 sequence (Q12809 whole entry): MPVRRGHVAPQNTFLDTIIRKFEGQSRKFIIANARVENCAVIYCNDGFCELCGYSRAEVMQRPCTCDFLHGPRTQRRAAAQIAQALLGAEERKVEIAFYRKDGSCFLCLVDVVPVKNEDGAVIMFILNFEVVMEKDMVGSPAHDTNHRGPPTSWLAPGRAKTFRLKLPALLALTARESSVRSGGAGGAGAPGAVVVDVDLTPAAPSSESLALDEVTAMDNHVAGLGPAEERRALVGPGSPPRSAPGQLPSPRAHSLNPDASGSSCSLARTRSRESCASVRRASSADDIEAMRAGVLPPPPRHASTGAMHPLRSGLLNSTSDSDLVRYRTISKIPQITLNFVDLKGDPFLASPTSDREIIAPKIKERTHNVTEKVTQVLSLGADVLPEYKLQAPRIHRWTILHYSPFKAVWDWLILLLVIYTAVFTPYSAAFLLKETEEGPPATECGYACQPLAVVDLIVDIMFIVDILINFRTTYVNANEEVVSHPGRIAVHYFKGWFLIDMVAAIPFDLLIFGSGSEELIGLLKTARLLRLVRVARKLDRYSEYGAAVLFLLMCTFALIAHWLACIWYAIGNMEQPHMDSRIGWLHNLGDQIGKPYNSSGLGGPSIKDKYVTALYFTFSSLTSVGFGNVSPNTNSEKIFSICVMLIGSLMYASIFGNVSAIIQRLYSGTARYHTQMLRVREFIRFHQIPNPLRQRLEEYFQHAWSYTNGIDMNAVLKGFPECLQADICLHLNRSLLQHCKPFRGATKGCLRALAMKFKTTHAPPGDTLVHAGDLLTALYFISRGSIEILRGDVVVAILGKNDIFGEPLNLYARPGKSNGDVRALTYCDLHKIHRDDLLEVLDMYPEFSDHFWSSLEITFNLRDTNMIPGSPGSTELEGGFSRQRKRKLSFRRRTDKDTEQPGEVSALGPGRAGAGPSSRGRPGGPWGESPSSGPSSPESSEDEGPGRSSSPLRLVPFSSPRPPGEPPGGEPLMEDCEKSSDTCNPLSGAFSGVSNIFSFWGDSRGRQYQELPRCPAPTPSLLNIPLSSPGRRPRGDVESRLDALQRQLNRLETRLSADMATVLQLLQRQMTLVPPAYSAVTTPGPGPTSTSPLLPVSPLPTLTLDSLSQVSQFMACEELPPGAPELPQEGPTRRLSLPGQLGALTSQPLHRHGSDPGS
Method: Ability to Block hERG Potassium Channel Ability to block hERG potassium channels was determined using the electrophysiological method and cloned hERG potassium channels (KCNH2 gene, expressed in CHO cells) as biological material. The effects were evaluated using IonWorks™ Quattro system (MDS-AT).
hERG current was elicited using a pulse pattern with fixed amplitudes (conditioning pre-pulse: −80 mV for 25 ms; test pulse: +40 mV for 80 ms) from a holding potential of 0 mV. hERG current was measured as a difference between the peak current at 1 ms after the test step to +40 mV and the steady-state current at the end of the step to +40 mV.
Data acquisition and analyses were performed using the lonWorks Quattro™ system operation software (version 2.0.2; Molecular Devices Corporation, Union City, Calif.). Data were corrected for leak current.
The hERG block was calculated as: % Block=(1−I TA/IControl)×100%, where IControl and ITA were the currents elicited by the test pulse in control and in the presence of a test compound, respectively.

Row | Compound | σ [%] (σ (non-selective)) | α1 [%] (α1 (non-selective)) | hERG [%] (% Block) [1]
1 | O=S(=O)(Nc1cccc(CNCCOc2cccc3c2OCCO3)c1)c1ccc(I)cc1 [Compound 22, N-[3-[[2-(2,3-dihydro-1,4-benzodioxin-5-yloxy)ethylamino]methyl]phenyl]-4-iodobenzenesulphonamide] | 95% | 84% | –
2 | CN(CCCc1noc2cc(F)ccc12)Cc1cccc(NS(=O)(=O)c2ccc(I)cc2)c1 [Compound 68, N-[3-[[3-(6-fluoro-1,2-benzoxazol-3-yl)propylmethylamino]methyl]phenyl]-4-iodobenzenesulphonamide] | 73% | 84% | –
3 | O=S(=O)(Nc1cccc(CNCCOc2cccc3c2OCCO3)c1)c1csc2ccccc12 [Compound 43, N-[3-[[2-(2,3-dihydro-1,4-benzodioxin-5-yloxy)ethylamino]methyl]phenyl]benzothiophene-3-sulphonamide] | – | – | 10%
4 | O=S(=O)(Nc1cccc(CNCCOc2cccc3c2OCCO3)c1)c1cccc2ccccc12 [Compound 35, N-[3-[[2-(2,3-dihydro-1,4-benzodioxin-5-yloxy)ethylamino]methyl]phenyl]naphthalene-1-sulphonamide] | – | – | −1%
5 | O=S(=O)(Nc1cccc(CNCCc2cccc(Cl)c2)c1)c1ccc2ccccc2c1 [Compound 6, N-[3-[[2-(3-chlorophenyl)ethylamino]methyl]phenyl]naphthalene-2-sulphonamide] | 73% | 53% | –
6 | COc1cccc(CCNCc2cccc(NS(=O)(=O)c3ccc4ccccc4c3)c2)c1 [Compound 11, N-[3-[[2-(3-methoxyphenyl)ethylamino]methyl]phenyl]naphthalene-2-sulphonamide] | 76% | 18% | −4%
7 | O=S(=O)(Nc1cccc(CNCCOc2cccc3c2OCCO3)c1)c1ccc2ccccc2c1 [Compound 36, N-[3-[[2-(2,3-dihydro-1,4-benzodioxin-5-yloxy)ethylamino]methyl]phenyl]naphthalene-2-sulphonamide] | – | – | 1%
8 | O=S(=O)(Nc1cccc(CNCCOc2cccc3[nH]ccc23)c1)c1ccc2ccccc2c1 [Compound 52, N-[3-[[2-(1H-indol-4-yloxy)ethylamino]methyl]phenyl]naphthalene-2-sulphonamide] | 79% | 41% | 2%
9 | COc1ccc(CCNCc2cccc(NS(=O)(=O)c3ccc4ccccc4c3)c2)cc1 [Compound 14, N-[3-[[2-(4-methoxyphenyl)ethylamino]methyl]phenyl]naphthalene-2-sulphonamide] | 54% | 13% | –
10 | O=S(=O)(Nc1cccc(CNCCOc2cccc3[nH]ccc23)c1)c1cccc2ccccc12 [Compound 51, N-[3-[[2-(1H-indol-4-yloxy)ethylamino]methyl]phenyl]naphthalene-1-sulphonamide] | 76% | 34% | 1%
11 | COc1ccccc1OCCNCc1cccc(NS(=O)(=O)c2ccc3ccccc3c2)c1 [Compound 10, N-[3-[[2-(2-methoxyphenoxyl)ethylamino]methyl]phenyl]naphthalene-2-sulphonamide] | 74% | 20% | –
12 | COc1ccccc1CCNCc1cccc(NS(=O)(=O)c2ccc3ccccc3c2)c1 [Compound 9, N-[3-[[2-(2-methoxyphenyl)ethylamino]methyl]phenyl]naphthalene-2-sulphonamide] | – | 56% | –
13 | O=S(=O)(Nc1cccc(CNCCc2ccccc2)c1)c1ccc2ccccc2c1 [Compound 1, N-[3-[(phenylethylamino)methyl]phenyl]naphthalene-2-sulphonamide] | 83% | 26% | –
14 | Cc1cccc(CCNCc2cccc(NS(=O)(=O)c3ccc4ccccc4c3)c2)c1 [Compound 8, N-[3-[[2-(3-methylphenyl)ethylamino]methyl]phenyl]naphthalene-2-sulphonamide] | 85% | 17% | –
15 | Cc1cccc(S(=O)(=O)Nc2cccc(CNCCOc3cccc4[nH]ccc34)c2)c1 [Compound 49, N-[3-[[2-(1H-indol-4-yloxy)ethylamino]methyl]phenyl]-3-methyl-benzenesulphonamide] | 79% | 59% | 2%
16 | O=S(=O)(Nc1cccc(CNCCc2cccc(O)c2)c1)c1ccc2ccccc2c1 [Compound 17, N-[3-[[2-(3-hydroxyphenyl)ethylamino]methyl]phenyl]naphthalene-2-sulphonamide] | 71% | 31% | –
